What was measured:
[1] = logP determination via HPLC retention times (calibration with unbranched alkan-2-ones); type: physicochemical
From the text: Die Kalibrierung wurde jeweils mit unverzweigten Alkan-2-onn (3 bis 16 Kohlenstoff Atome) mit bekannten IogP Werten durchgeführt (Bestimmung von den logP Werten über die Retentionszeiten durch lineare Interpolation zwischen zwei bestimmten Alkazionen). Die Lambda-max Werte wurden jeweils in den Maxima der Chromatographie-Signale durch UV Spektren zwischen 190nm und 400nm bestimmt.

Venturia inaequalis = test: Venturia test (apple) / protective; type: in vivo; conditions: 100 ppm Wirkstoff; apple plants sprayed protectively; evaluation 10 days after inoculation
From the text: Venturia - Test (Apfel) / protektiv
(§1) Zur Herstellung einer zweckmäßigen Wirkstoffzubereitung vermischt man 1 Gewichtsteil Wirkstoff mit den angegebenen Mengen Lösungsmittel und Emulgator und verdünnt das Konzentrat mit Wasser auf die gewünschte Konzentration.
Zur Prüfung auf protektive Wirksamkeit werden junge Pflanzen mit der Wirkstoffzubereitung in der angegebenen Aufwandmenge besprüht. Nach Antrocknen des Spritzbelages werden die Pflanzen mit einer wäßrigen Konidiensuspension des Apfelschorferregers Venturia inaequalis inokuliert und verbleiben dann 1 Tag bei ca. 20°C und 100% relativer Luftfeuchtigkeit in einer Inkubations-kabine.
Die Pflanzen werden dann im Gewächshaus bei ca, 21°C und einer relativen Luftfeuchtigkeit von ca. 90% aufgestellt.
(§2) 10 Tage nach der Inokulation erfolgt die Auswertung. Dabei bedeutet 0% ein Wirkungsgrad, der demjenigen der Kontrolle entspricht, während ein Wirkungsgrad von 100% bedeutet, daß kein Befall beobachtet wird.

Botrytis cinerea = test: Botrytis test (bean) / protective; type: in vivo; conditions: 250 ppm Wirkstoff; bean plants sprayed protectively; lesion size 2 days after inoculation
From the text: Botrytis - Test (Bohne) / protektiv
as §1
Zur Prüfung auf protektive Wirksamkeit werden junge Pflanzen mit der Wirkstoff-zubereitung in der angegebenen Aufwandmenge besprüht. Nach Antrocknen des Spritzbelages werden auf jedes Blatt 2 kleine mit Botrytis cinerea bewachsene Agarstückchen aufgelegt. Die inokulierten Pflanzen werden in einer abgedunkelten Kammer bei ca. 20°C und 100% relativer Luftfeuchtigkeit aufgestellt.
2 Tage nach der Inokulation wird die Größe der Befallsflecken auf den Blättern ausgewertet. Dabei bedeutet 0% ein Wirkungsgrad, der demjenigen der Kontrolle entspricht, während ein Wirkungsgrad von 100% bedeutet, daß kein Befall beobachtet wird.

[2] = tested on: Erysiphe graminis f.sp, hordei; test: Erysiphe test (barley) / protective; type: in vivo; conditions: 1000 ppm Wirkstoff; barley plants sprayed protectively; evaluation 7 days after inoculation
From the text: Erysiphe-Test (Gerste) / protektiv
as §1
Zur Prüfung auf protektive Wirksamkeit besprüht man junge Pflanzen mit der Wirkstoffzubereitung in der angegebenen Aufwandmenge.
Nach Antrocknen des Spritzbelages werden die Pflanzen mit Sporen von Erysiphe graminis f.sp, hordei bestäubt.
Die Pflanzen werden in einem Gewächshaus bei einer Temperatur von ca. 20°C und einer relativen Luftfeuchtigkeit von ca. 80 % aufgestellt, um die Entwicklung von Mehltaupusteln zu begünstigen.
7 Tage nach der Inokulation erfolgt die Auswertung, Dabei bedeutet 0 % ein Wirkungsgrad, der demjenigen der Kontrolle entspricht, während ein Wirkungsgrad von 100 % bedeutet, daß kein Befall beobachtet wird.

Leptosphaeria nodorum = Leptosphaeria nodorum test (wheat) / protective; type: in vivo; conditions: 1000 ppm Wirkstoff; wheat plants sprayed protectively; evaluation 10 days after inoculation
From the text: Leptosphaeria nodorum-Test (Weizen) / protektiv
(§3) Zur Herstellung einer zweckmäßigen Wirkstoffzubereitung vermischt man 1 Gewichtsteil Wirkstoff mit den angegebenen Mengen Lösungsmittel und Emulgator und verdünnt das Konzentrat mit Wasser auf die gewünschte Konzentration,
(§4) Zur Prüfung auf protektive Wirksamkeit werden junge Pflanzen mit der Wirkstoffzubereitung in der angegebenen Aufwandmenge besprüht Nach Antrocknen des Spritzbelages werden die Pflanzen mit einer Sporensuspension von Leptosphaeria nodorum besprüht, Die Pflanzen verbleiben 48 Stunden bei 20°C und 100 % relativer Luftfeuchtigkeit in einer Inkubationskabine.
Die Pflanzen werden in einem Gewächshaus bei einer Temperatur von ca. 20°C und einer relativen Luftfeuchtigkeit von 80 % aufgestellt.
as §2

[3] = tested on: Fusarium nivale (var. majus); test: Fusarium nivale (var. majus) test (wheat) / protective; type: in vivo; conditions: 1000 ppm Wirkstoff; wheat plants sprayed protectively; evaluation 6 days after inoculation
From the text: Fusarium nivale (var. majus)-Test (Weizen) / protektiv
as §3
Zur Prüfung auf protektive Wirksamkeit werden junge Pflanzen mit der Wirkstoffzubereitung in der angegebenen Aufwandmenge besprüht. Nach Antrocknen des Spritzbelages werden die Pflanzen mit einer Konidiensuspension von Fusarium nivale (var. majus) besprüht.
Die Pflanzen werden in einem Gewächshaus unter lichtdurchlässigen Inkubationshauben bei einer Temperatur von ca.15°C und einer relativen Luftfeuchtigkeit von ca. 100 % aufgestellt.
6 Tage nach der Inokulation erfolgt die Auswertung. Dabei bedeutet 0% ein Wirkungsgrad, der demjenigen der Kontrolle entspricht, während ein Wirkungsgrad von 100% bedeutet, daß kein Befall beobachtet wird.

Pyrenophora teres = Pyrenophora teres test (barley) / protective; type: in vivo; conditions: 1000 ppm Wirkstoff; barley plants sprayed protectively; evaluation 8 days after inoculation
From the text: Pyrenophora teres-Test (Gerste) / protektiv
as §1
as §4, with “angegeben” for “angegebenen”, “besprüht,” for “besprüht”, “Konidiensuspension” for “Sporensuspension”, “Pyrenophora teres besprüht.” for “Leptosphaeria nodorum besprüht,”
Die Pflanzen werden dann in einem Gewächshaus bei einer Temperatur von ca. 20°C und relativen Luftfeuchtigkeit von ca. 80 % aufgestellt.
8 Tage nach der Inokulation erfolgt die Auswertung. Dabei bedeutet 0 % ein Wirkungsgrad, der demjenigen der Kontrolle entspricht, während ein Wirkungsgrad von 100 % bedeutet, daß kein Befall beobachtet wird, […]

[4] = from retention times, linear interpolation between alkan-2-ones
[5] = HPLC on reversed-phase C 18 columns, EEC Directive 79/831 Annex V.A8, acidic aqueous mobile phase / acetonitrile, linear gradient 10% to 95% acetonitrile

chromatographic logP [1, 5] | Structure (SMILES) | other results
– | Cc1ccc(-c2c(C)n[nH]c(=O)c2-c2cc(F)c(F)cc2F)nc1C [5-(5,6-Dimethyl-2-pyridyl)-4-(2,4,5-trifluorphenyl)-6-methylpyridazin-3(2H)-on] | chromatographic logP [1, 4]: 2.06
– | Cc1ccc(-c2c(C)n[nH]c(=O)c2-c2c(Cl)cccc2Cl)nc1C [5-(5,6-Dimethyl-2-pyridyl)-4-(2,6-dichlorphenyl)-6-methylpyridazin-3(2H)-on] | chromatographic logP [1, 4]: 2.11
– | Cc1n[nH]c(=O)c(-c2cccc3c2OC(F)(F)O3)c1-c1ccc(Cl)s1 [5-(5-Chlor-2-thienyl)-4-(2,2-difluor-1,3-benzodioxol-4-yl)-6-methylpyridazin-3(2H)-on] | chromatographic logP [1, 4]: 3.18
– | Cc1n[nH]c(=O)c(-c2cc(F)c(F)cc2F)c1-c1ccc(Cl)s1 [5-(5-Chlor-2-thienyl)-4-(2,4,5-trifluorphanyl)-6-methylpyridazin-3(2H)-on] | chromatographic logP [1, 4]: 2.88
– | Cc1n[nH]c(=O)c(-c2c(Cl)cccc2Cl)c1-c1ccc(Cl)s1 [5-(5-Chlor-2-thienyl)-4-(2,6-dichlorphenyl)-6-methylpyridazin-3(2H)-on] | chromatographic logP [1, 4]: 3.11
– | Cc1n[nH]c(=O)c(-c2ccccc2F)c1-c1ccc(Cl)s1 [5-(5-Chlor-2-thienyl)-4-(2-fluorphenyl)-6-methylpyridazin-3(2H)-on] | chromatographic logP [1, 4]: 2.64
– | Cc1ccc(-c2c(C)n[nH]c(=O)c2-c2c(F)cccc2F)o1 [5-(5-Methyl-2-furyl)-4-(2,6-difluorphenyl)-6-methylpyridazin-3(2H)-on] | chromatographic logP [1, 4]: 2.19
3.45 | Cc1nnc(Cl)c(-c2ccc(F)cc2Cl)c1-c1cccs1 [Beispiel 37] | Wirkungsgrad (Venturia inaequalis): ≥ 70%; Wirkungsgrad (Botrytis cinerea): ≥ 70%
– | Cc1nnc(Cl)c(-c2ccccc2Cl)c1-c1ccc(Cl)s1 [Beispiel 58] | logP [1, 5]: 4,01; chromatographic logP [1, 4]: 4.01
4.16 | Cc1nnc(Cl)c(-c2c(F)cccc2Cl)c1-c1ccc(Cl)s1 [Beispiel 94] | Wirkungsgrad (Venturia inaequalis): ≥ 70%; Wirkungsgrad (Botrytis cinerea): ≥ 70%
3.12 | Cc1nnc(Cl)c(-c2c(F)cccc2F)c1-c1cccs1 [Beispiel 100] | Wirkungsgrad (Venturia inaequalis): ≥ 70%; Wirkungsgrad [2]: ≥ 70%; Wirkungsgrad (Botrytis cinerea): ≥ 70%; Wirkungsgrad (Leptosphaeria nodorum): ≥ 70%; Wirkungsgrad [3]: ≥ 70%; Wirkungsgrad (Pyrenophora teres): ≥ 70%
2.88 | Cc1ccc(-c2c(C)nnc(Cl)c2-c2c(F)cccc2F)nc1C [Beispiel 101] | Wirkungsgrad (Venturia inaequalis): ≥ 70%
3.84 | Cc1nnc(Cl)c(-c2c(F)cccc2F)c1-c1ccc(Cl)s1 [Beispiel 103] | Wirkungsgrad (Venturia inaequalis): ≥ 70%; Wirkungsgrad (Botrytis cinerea): ≥ 70%
– | Cc1ccccc1-c1c(Cl)nnc(C)c1-c1cccs1 [Beispiel 190] | chromatographic logP ([1]; HPLC on reversed-phase C 18 columns per EEC Directive 79/831 Annex V.A8, acidic mobile phase (0.1% aqueous formic or phosphoric acid) and acetonitrile, linear gradient 10% to 95% acetonitrile): 3.18
4.33 | Cc1nnc(Cl)c(-c2cccc3c2OC(F)(F)O3)c1-c1ccc(Cl)s1 [compound 1] | –
4.28 | Cc1nnc(Cl)c(-c2ccc(F)cc2Br)c1-c1ccc(Cl)s1 [compound 10] | –
3.56 | Cc1nnc(Cl)c(-c2ccc(F)cc2Br)c1-c1cccs1 [compound 11] | –
4.21 | Cc1nnc(Cl)c(-c2ccc(F)cc2Cl)c1-c1ccc(Cl)s1 [compound 38] | –

chromatographic logP [1, 5] | Structure (SMILES) | other results
4.44 | Cc1nnc(Cl)c(-c2c(Cl)cccc2Cl)c1-c1ccc(Cl)s1 [compound 46] | –
4.16 | Cc1ccc(-c2c(C)nnc(Cl)c2-c2c(Cl)cccc2Cl)nc1C [compound 47] | –
3.33 | Cc1nnc(Cl)c(-c2c(F)cccc2Cl)c1-c1cccs1 [compound 55] | –
3.29 | Cc1nnc(Cl)c(-c2ccccc2Cl)c1-c1cccs1 [compound 59] | –
4.11 | Cc1nnc(Cl)c(-c2c(F)cc(F)cc2F)c1-c1ccc(Cl)s1 [compound 67] | –
3.39 | Cc1nnc(Cl)c(-c2cc(F)c(F)cc2F)c1-c1cccs1 [compound 85] | –
4.01 | Cc1nnc(Cl)c(-c2cc(F)c(F)cc2F)c1-c1ccc(Cl)s1 [compound 86] | –
3.15 | Cc1ccc(-c2c(C)nnc(Cl)c2-c2cc(F)c(F)cc2F)nc1C [compound 87] | –
2.08 | Cc1nnc(Cl)c(-c2c(F)cccc2F)c1-c1ccncc1 [compound 102] | –
3.26 | Cc1ccc(-c2c(C)nnc(Cl)c2-c2c(F)cccc2F)o1 [compound 104] | –
2.51 | Cc1nnc(Cl)c(-c2c(F)cccc2F)c1-c1nccs1 [compound 105] | –
3.7 | Cc1nnc(Cl)c(-c2ccccc2F)c1-c1ccc(Cl)s1 [compound 118] | –
3.42 | Cc1nnc(Cl)c(-c2cc(F)ccc2F)c1-c1ccc(Cl)s1 [compound 119] | –
4.16 | Cc1nnc(Cl)c(-c2cc(Cl)ccc2F)c1-c1ccc(Cl)s1 [compound 120] | –
3.05 | Cc1nnc(Cl)c(-c2ccccc2F)c1-c1cccs1 [compound 121] | –
3.34 | Cc1nnc(Cl)c(-c2cccc(Cl)c2)c1-c1cccs1 [compound 172] | –
4.07 | Cc1nnc(Cl)c(-c2cccc(Cl)c2)c1-c1ccc(Cl)s1 [compound 173] | –
3.65 | COc1ccccc1-c1c(Cl)nnc(C)c1-c1ccc(Cl)s1 [compound 182] | –

From patent EP1972623A1, “Arylpyridazines as fungicides” (Bayer CropScience AG, priority 2007, dated 2008)
